# In PubChem BioAssay AID2060886 (Molecular Pharmacology Branch, DTP, NCI, 2025):
# Test system: 653999-131-R-J2-PDC complex spheroids, growth inhibition
# Assay: Anticancer human tumor 653999-131-R-J2-PDC patient-derived lung adenocarcinoma cell line growth inhibition [RAS]
# Settings: for IC50: curve of first compound; for viability, T/C: stronger effect = lower value
# How it was run: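 Multi-cell-type spheroids: tumor cells plus HUVEC endothelial cells and mesenchymal stem cells. RAS-pathway inhibitors were combined with targeted agents, each dosed in half-log steps down from clinical Cmax, or from 10 microM when Cmax was unknown.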
# 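Also: spheroids exposed to the agents for seven days before the readout.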
compound,measurement,setting,value
O=C(c1ccc(F)c(F)c1Nc1ccc(I)cc1F)N1CC(O)([C@@H]2CCCCN2)C1 + C=CC(=O)N1CCN(c2nc(OCC3CCCN3C)nc3c(F)c(-c4nc(N)cc(C)c4C(F)(F)F)c(Cl)cc23)C(C)C1,IC50,second compound 0.00316 µM,96.1 nM
same,IC50,second compound 0.01 µM,49.2 nM
same,IC50,second compound 0.0316 µM,111 nM
same,IC50,second compound 0.1 µM,63.8 nM
same,IC50,second compound 0.316 µM,87.3 nM
same,IC50,second compound 1 µM,70.3 nM
same,"viability, T/C","second compound 0.00316 µM, first compound 0.00316 µM",86.1%
same,"viability, T/C","second compound 0.00316 µM, first compound 0.01 µM",83.1%
same,"viability, T/C","second compound 0.00316 µM, first compound 0.0316 µM",63.8%
same,"viability, T/C","second compound 0.00316 µM, first compound 0.1 µM",53.6%
same,"viability, T/C","second compound 0.00316 µM, first compound 0.316 µM",25%
same,"viability, T/C","second compound 0.00316 µM, first compound 1 µM",10.2%
same,"viability, T/C","second compound 0.01 µM, first compound 0.00316 µM",94.1%
same,"viability, T/C","second compound 0.01 µM, first compound 0.01 µM",83.3%
same,"viability, T/C","second compound 0.01 µM, first compound 0.0316 µM",53.2%
same,"viability, T/C","second compound 0.01 µM, first compound 0.1 µM",37.7%
same,"viability, T/C","second compound 0.01 µM, first compound 0.316 µM",24.1%
same,"viability, T/C","second compound 0.01 µM, first compound 1 µM",8.42%
same,"viability, T/C","second compound 0.0316 µM, first compound 0.00316 µM",105%
same,"viability, T/C","second compound 0.0316 µM, first compound 0.01 µM",86.6%
same,"viability, T/C","second compound 0.0316 µM, first compound 0.0316 µM",74.8%
same,"viability, T/C","second compound 0.0316 µM, first compound 0.1 µM",57.6%
same,"viability, T/C","second compound 0.0316 µM, first compound 0.316 µM",22.4%
same,"viability, T/C","second compound 0.0316 µM, first compound 1 µM",7.31%
same,"viability, T/C","second compound 0.1 µM, first compound 0.00316 µM",96.9%
same,"viability, T/C","second compound 0.1 µM, first compound 0.01 µM",80.5%
same,"viability, T/C","second compound 0.1 µM, first compound 0.0316 µM",60.6%
same,"viability, T/C","second compound 0.1 µM, first compound 0.1 µM",40.5%
same,"viability, T/C","second compound 0.1 µM, first compound 0.316 µM",29%
same,"viability, T/C","second compound 0.1 µM, first compound 1 µM",9.39%
same,"viability, T/C","second compound 0.316 µM, first compound 0.00316 µM",84.4%
same,"viability, T/C","second compound 0.316 µM, first compound 0.01 µM",69.9%
same,"viability, T/C","second compound 0.316 µM, first compound 0.0316 µM",65.8%
same,"viability, T/C","second compound 0.316 µM, first compound 0.1 µM",51.2%
same,"viability, T/C","second compound 0.316 µM, first compound 0.316 µM",24.5%
same,"viability, T/C","second compound 0.316 µM, first compound 1 µM",9.08%
same,"viability, T/C","second compound 1 µM, first compound 0.00316 µM",100%
same,"viability, T/C","second compound 1 µM, first compound 0.01 µM",79%
same,"viability, T/C","second compound 1 µM, first compound 0.0316 µM",60.3%
same,"viability, T/C","second compound 1 µM, first compound 0.1 µM",48.8%
same,"viability, T/C","second compound 1 µM, first compound 0.316 µM",25.8%
same,"viability, T/C","second compound 1 µM, first compound 1 µM",11%
CCc1c2c(nc3ccc(O)cc13)-c1cc3c(c(=O)n1C2)COC(=O)[C@]3(O)CC + C#Cc1c(F)ccc2cc(O)cc(-c3ncc4c(N5CC6CCC(C5)N6)nc(OCC56CCCN5CC(F)C6)nc4c3F)c12,IC50,second compound 0.0316 µM,7.6 nM
same,IC50,second compound 0.1 µM,7.98 nM
same,IC50,second compound 0.316 µM,1.67 nM
same,IC50,second compound 1 µM,< 0.949 nM
same,IC50,second compound 3.16 µM,< 0.949 nM
same,IC50,second compound 10 µM,< 0.949 nM
same,"viability, T/C","second compound 0.0316 µM, first compound 0.000949 µM",85.8%
same,"viability, T/C","second compound 0.0316 µM, first compound 0.003 µM",68.4%
same,"viability, T/C","second compound 0.0316 µM, first compound 0.00949 µM",43.6%
same,"viability, T/C","second compound 0.0316 µM, first compound 0.03 µM",30.7%
same,"viability, T/C","second compound 0.0316 µM, first compound 0.0949 µM",24.1%
same,"viability, T/C","second compound 0.0316 µM, first compound 0.3 µM",14.2%
same,"viability, T/C","second compound 0.1 µM, first compound 0.000949 µM",83.9%
same,"viability, T/C","second compound 0.1 µM, first compound 0.003 µM",58.7%
same,"viability, T/C","second compound 0.1 µM, first compound 0.00949 µM",48.4%
same,"viability, T/C","second compound 0.1 µM, first compound 0.03 µM",35.2%
same,"viability, T/C","second compound 0.1 µM, first compound 0.0949 µM",22.9%
same,"viability, T/C","second compound 0.1 µM, first compound 0.3 µM",12.2%
same,"viability, T/C","second compound 0.316 µM, first compound 0.000949 µM",57.5%
same,"viability, T/C","second compound 0.316 µM, first compound 0.003 µM",41.4%
same,"viability, T/C","second compound 0.316 µM, first compound 0.00949 µM",32.2%
same,"viability, T/C","second compound 0.316 µM, first compound 0.03 µM",23.5%
same,"viability, T/C","second compound 0.316 µM, first compound 0.0949 µM",17.5%
same,"viability, T/C","second compound 0.316 µM, first compound 0.3 µM",13.3%
same,"viability, T/C","second compound 1 µM, first compound 0.000949 µM",40.3%
same,"viability, T/C","second compound 1 µM, first compound 0.003 µM",26.4%
same,"viability, T/C","second compound 1 µM, first compound 0.00949 µM",21.4%
same,"viability, T/C","second compound 1 µM, first compound 0.03 µM",20.2%
same,"viability, T/C","second compound 1 µM, first compound 0.0949 µM",15.1%
same,"viability, T/C","second compound 1 µM, first compound 0.3 µM",20.8%
same,"viability, T/C","second compound 3.16 µM, first compound 0.000949 µM",39.2%
same,"viability, T/C","second compound 3.16 µM, first compound 0.003 µM",21.2%
same,"viability, T/C","second compound 3.16 µM, first compound 0.00949 µM",16.6%
same,"viability, T/C","second compound 3.16 µM, first compound 0.03 µM",11.6%
same,"viability, T/C","second compound 3.16 µM, first compound 0.0949 µM",9.96%
same,"viability, T/C","second compound 3.16 µM, first compound 0.3 µM",7.39%
same,"viability, T/C","second compound 10 µM, first compound 0.000949 µM",26.8%
same,"viability, T/C","second compound 10 µM, first compound 0.003 µM",17.8%
same,"viability, T/C","second compound 10 µM, first compound 0.00949 µM",12.5%
same,"viability, T/C","second compound 10 µM, first compound 0.03 µM",9.45%
same,"viability, T/C","second compound 10 µM, first compound 0.0949 µM",7.29%
same,"viability, T/C","second compound 10 µM, first compound 0.3 µM",4.35%
Nc1ccn(C2OC(CO)C(O)C2(F)F)c(=O)n1 (stereo unspecified) + CCn1c(-c2cc(N3CCN(C)CC3)cnc2C(C)OC)c2c3cc(ccc31)-c1csc(n1)CC(NC(=O)C1CC1C)C(=O)N1CCCC(N1)C(=O)OCC(C)(C)C2,IC50,second compound 0.000949 µM,14.1 nM
same,IC50,second compound 0.003 µM,6.3 nM
same,IC50,second compound 0.00949 µM,< 3.16 nM
same,IC50,second compound 0.03 µM,< 3.16 nM
same,IC50,second compound 0.0949 µM,< 3.16 nM
same,IC50,second compound 0.3 µM,< 3.16 nM
same,"viability, T/C","second compound 0.000949 µM, first compound 0.00316 µM",67.6%
same,"viability, T/C","second compound 0.000949 µM, first compound 0.01 µM",57%
same,"viability, T/C","second compound 0.000949 µM, first compound 0.0316 µM",34.4%
same,"viability, T/C","second compound 0.000949 µM, first compound 0.1 µM",34.4%
same,"viability, T/C","second compound 0.000949 µM, first compound 0.316 µM",25.9%
same,"viability, T/C","second compound 0.000949 µM, first compound 1 µM",23%
same,"viability, T/C","second compound 0.003 µM, first compound 0.00316 µM",59.1%
same,"viability, T/C","second compound 0.003 µM, first compound 0.01 µM",43.1%
same,"viability, T/C","second compound 0.003 µM, first compound 0.0316 µM",31.8%
same,"viability, T/C","second compound 0.003 µM, first compound 0.1 µM",20.8%
same,"viability, T/C","second compound 0.003 µM, first compound 0.316 µM",16.2%
same,"viability, T/C","second compound 0.003 µM, first compound 1 µM",19.7%
same,"viability, T/C","second compound 0.00949 µM, first compound 0.00316 µM",45.6%
same,"viability, T/C","second compound 0.00949 µM, first compound 0.01 µM",30.9%
same,"viability, T/C","second compound 0.00949 µM, first compound 0.0316 µM",25%
same,"viability, T/C","second compound 0.00949 µM, first compound 0.1 µM",19.3%
same,"viability, T/C","second compound 0.00949 µM, first compound 0.316 µM",18.2%
same,"viability, T/C","second compound 0.00949 µM, first compound 1 µM",15.1%
same,"viability, T/C","second compound 0.03 µM, first compound 0.00316 µM",37.3%
same,"viability, T/C","second compound 0.03 µM, first compound 0.01 µM",29.4%
same,"viability, T/C","second compound 0.03 µM, first compound 0.0316 µM",20.3%
same,"viability, T/C","second compound 0.03 µM, first compound 0.1 µM",14.7%
same,"viability, T/C","second compound 0.03 µM, first compound 0.316 µM",12.8%
same,"viability, T/C","second compound 0.03 µM, first compound 1 µM",11.6%
same,"viability, T/C","second compound 0.0949 µM, first compound 0.00316 µM",26.7%
same,"viability, T/C","second compound 0.0949 µM, first compound 0.01 µM",30.3%
same,"viability, T/C","second compound 0.0949 µM, first compound 0.0316 µM",18.8%
same,"viability, T/C","second compound 0.0949 µM, first compound 0.1 µM",16.7%
same,"viability, T/C","second compound 0.0949 µM, first compound 0.316 µM",11.7%
same,"viability, T/C","second compound 0.0949 µM, first compound 1 µM",11%
same,"viability, T/C","second compound 0.3 µM, first compound 0.00316 µM",25.9%
same,"viability, T/C","second compound 0.3 µM, first compound 0.01 µM",24.5%
same,"viability, T/C","second compound 0.3 µM, first compound 0.0316 µM",20.7%
same,"viability, T/C","second compound 0.3 µM, first compound 0.1 µM",18.4%
same,"viability, T/C","second compound 0.3 µM, first compound 0.316 µM",13.9%
same,"viability, T/C","second compound 0.3 µM, first compound 1 µM",12.8%
